The numbers were not newly measured in patent publication US12115220B2, “Oral mucosal carrier and protectant” (Inspired Material Solutions, LLC, priority 2018, dated 2024), which cites them from elsewhere.

The mark [1] stands for this setting: 10 mg CBD+10 mg THC in an oral capsule.
[2] abbreviates: after buccal Sativex (10 mg THC+10 mg CBD).

Read-outs that look alike come from different tables or passages of the source.

Turning to `C=C(C)[C@@H]1CCC(C)=C[C@H]1c1c(O)cc(CCCCC)cc1O` [CBD, cannabidiol], the “mean (SD) peak plasma concentration” value runs as follows: under setting [1], 2.5 (2.2) μg/L; under setting [2], 3.0 (3.1) μg/L. Moreover, the “Time to maximum concentration (Tmax)” value is, setting by setting: (after buccal administration) 2.8 (1.3) h; (after oral administration) 1.3 (0.8) h.
For the molecule `CCCCCc1cc(O)c2c(c1)OC(C)(C)[C@@H]1CCC(C)=C[C@@H]21` [THC, delta-9-tetrahydrocannabinol], the “mean (SD) peak plasma concentration” value under setting [1] was 6.4 (3.1) μg/L and the “mean (SD) peak plasma concentration” value under setting [2] is on record as 6.1 (5.4) μg/L. For the same molecule, for the setting “after a 20 mg dose of oral THC”, the plasma maximum concentrations was 4.4 to 11.0 µg/L. In addition, the “Time to maximum concentration (Tmax)” value by setting is: (after buccal administration) 2.4 (1.1) h; (after oral administration) 1.0 (0.6) h. Moreover, the bioavailability result (inhaled) is recorded as “up to 27%”. The “time of peak concentrations postdose” value (oral absorption) is 1 to 5 h.
